# System: VX2 tumors
# Assay: CT of hepatic VX2 tumors, co-administration study
# Assay type: in vivo, rabbits
# Details: VX2 rabbit
# Source text: In a particularly advantageous embodiment of the invention, a hepatocyte-selective oil-in-water emulsion is co-administered with the blood-pool agent of the present invention. Liver-selective particulate agents (hepatocyte-selective or Kupffer cell-selective) clear rapidly from the blood and render the blood hypodense relative to surrounding liver tissue. It is very difficult to separate small tumors, which also appear as hypodense areas from small vasculature in the sub 5 mm size range. In order to compensate for this problem, DHOG-PEG (Example 1) and hepatocyte-selective DHOG-LE (Emulsion Example 6, non-radioactive form) were co-administered to rabbits bearing VX2 tumors.
# Rabbits (mean weight 2.5 kg) were inoculated with VX2 carcinoma directly into the hepatic parenchyma to produce a total of 8 focal lesions (2-10 mm). Ten days later, the rabbits were scanned with multiple techniques including noncontrast, helical IV enhanced (600 mg I/kg iohexol), and 24 hours later using the iodinated microparticulate emulsion (200 mg I/kg). Tissue density measurements (HU) were made of liver, lesions, and blood (descending aorta). Tumor morphology was verified by gross pathologic examination.
# [1] = iohexol 600 mg I/kg, emulsion 200 mg I/kg
smiles,measurement,setting,value
CC(=O)N(CC(O)CO)c1c(I)c(C(=O)NCC(O)CO)c(I)c(C(=O)NCC(O)CO)c1I (stereo not drawn) [iohexol],"lesion detection (sensitivity), Lesions < 1 cm",,49.3
same,"lesion detection (sensitivity), Lesions > 1 cm",,97.6
same,"lesion detection (sensitivity), Overall",,67.6
same,liver-to-lesion difference,,28.8
same,enhancement of liver tissue,[1],+66.8 HU
same,tumor enhancement,[1],+40.1 HU

# Source: patent publication US7582279B2, “Blood-pool carrier for lipophilic imaging agents” (The Board of Regents of the University of Michigan, priority 1994, dated 2009)
